Data on eleven molecules can be found in patent US20230107216A1, “PANTETHEINE DERIVATIVES AND USES THEREOF” (Comet Therapeutics, Inc., priority 2018, published 2023).

Where two headings read alike, the source gives them in different places.

Test [1] concerns Subnormal activation of pyruvate dehydrogenase complex (PDH) primary fibroblasts GM01503. The test is described as follows: NADP+/NADPH (NADP/NADPH-Glo), PDH fibroblasts GM01503. Type of test: cell-based. The settings on record: Homo sapiens, Fibroblast, PDH GM01503 P10, assay condition A (10 mM glucose, 2 mM L-glutamine, 1 mM pyruvate, 10% FBS), 24h, read-out: Increase in Total NADP+ + NADPH. The protocol:
Primary adherent fibroblasts were cultured in minimum essential medium (MEM) (Gibco, 25030081) supplemented with 2 mM L-Glutamine (Gibco, 25030081), 15% fetal bovine serum (FBS) (Gibco, 26400044) and 1% penicillin/streptomycin (Gibco, 5140122) at 37° C. and 5% CO2. Cells were collected for either passaging or experiment at ˜70-80% confluence. Cells were obtained by trypsinization and seeded in cell culture microplates either white plate (Thermo Fisher Scientific, 152028) for luminescent measurement or black plate (Thermo Fisher Scientific, 165305) for fluorescent based read out for different assays listed below. Cells were obtained by trypsinization and […] were seeded and allowed to adhere for 16-18 hours to have confluency around 70-80% in the cell well with culture media. After 24 hours prior to measurements (37° C., 5% CO2) media was changed to Dulbecco's Modified Eagle Medium (DMEM, Agilent Seahorse cat #103575-100) with the appropriate supplements as stated below.
Primary fibroblasts assayed were Propionic Acidemia (PA) (GM03590 Coriell Institute for Medical Research, Tsi 6337 Trans-Hit Bio), Methylmalonic Acidemia (MMA) (Tsi 5224 Trans-Hit Bio), Subnormal activation of pyruvate dehydrogenase complex (PDH) (GM01503 Coriell Institute for Medical Research), Very long-chain acyl-CoA dehydrogenase (VLCAD) (GM17475), Leigh Syndrome (LS) (GM03672, GM13411 Coriell Institute for Medical Research), Pyruvate Carboxylase Deficiency (PC) (GM00444 Coriell Institute for Medical Research). 10 μM of Compounds were added for 2 hours in PA, MMA lines and for 24h for the other fibroblast lines.
Assay was performed according to manufacturer instructions (NADP+/NADPH-Glo Assay Promega, G9082). Assay required a plate for total measurement of NADP+/NADPH and a plate for individual measurement of NADP+ or NADPH. For every assay a 12-point standard curve is prepared ranging from 400 nM to 0.625 nM. Media is removed and replaced with 50 μl of PBS for both assays.
For individual NADP+/NADPH measurements, 50 μl of 1% DTAB (Sigma, D5047) (cell lysis reagent) in 0.2N NaOH was added to the plates and 100 μl of lysate was split into two plates with 50 μl each from which ratio of NADP/NADPH can be calculated. 25 μl of 0.4N HCl were added to the NADP+ plates and both NADP+ and NADPH plates were heated at 60° C. for 15 minutes. The acid and heat treatment destroyed NADPH allowing individual NADP+ measurements while heating in basic conditions destroys NADP+ allowing individual NADPH measurement. After 15 minutes plates were allowed to come to room temperature and Trizma base (Sigma, T1699) was added to the NADP+ plates to neutralize the acid and HCl Trizma hydrochloride (Sigma, T2694) was added to the NADPH plates. The NADNADPH glo reagent was prepared by adding 125 μl of NAD cycling substrate, 125 μl of reductase, 125 μl of reductase substrate, 125 μl NAD cycling enzyme to a total of the 25 ml of NAD GLO reagent. 1:1 ratio of total volume of reagent was added to the individual NADP+, NADPH measurements (total 100 μl) and 50 μl were added for the total NAD/NADPH measurements. Luminescence was measured for 30-60 minutes within the linear range.
A total dead cell count was performed as described in Example 817 and only alive cells were used for analysis.

In test [2] the test system is Peripheral blood mononuclear cells co-cultured with venular endothelial cells (HUVEC) (LPS system). Kind of test: BioMAP LPS system. Type of test: cell-based, human. The conditions noted are these: procedure of Example 827.
The subject of test [3] is Bronchial epithelial cells (BE3C system). Kind of test: BioMAP BE3C system (IL-1β, TNFα, IFNγ). Type of test: cell-based, human. The conditions noted are these: procedure of Example 831.
The mark [4] stands for this setting: Homo sapiens, HUVEC, 24 h, 1 uM, read-out: % decrease in IL-8.
Setting [5] is: Homo sapiens, HUVEC, 24 h, 1 uM, read-out: % decrease in sPGE2.
Setting [6] is: Homo sapiens, HUVEC, 24 h, 10 uM, read-out: % decrease in IL-1α.
Setting [7] is: Homo sapiens, HUVEC, 24 h, 10 uM, read-out: % decrease in TissueFactor.
Setting [8] is: Homo sapiens, HUVEC, 24 h, 10 uM, read-out: % increase in sTNFα.
[9] abbreviates: Homo sapiens, Epithelial cell, 24 h, 10 uM, read-out: % decrease in MMP-1.
Setting [10] is: Homo sapiens, HUVEC, 24 h, 1 uM, read-out: % decrease in IL-1α.
Setting [11] is: Homo sapiens, HUVEC, 24 h, 10 uM, read-out: % decrease in IL-8.
The mark [12] stands for this setting: Homo sapiens, HUVEC, 24 h, 10 uM, read-out: % decrease in sPGE2.

As for `C[C@@H](O)CC(=O)SCCNC(=O)CCNC(=O)[C@H](O)C(C)(C)CO` [Compound 38, S-2-{3-[(R)-2,4-dihydroxy-3,3-dimethylbutyrylamino]propionylamino} ethyl (R)-3-hydroxybutanethioate], in test [1], the activation at 10 µM is at least 10%.

For `COC(=O)CCC(=O)SCCNC(=O)CCNC(=O)[C@H](OC(=O)CNC(C)=O)C(C)(C)CO` [Compound 1298, methyl 4-[(2-[3-[(2R)-2-[(2-acetamidoacetyl)oxy]-4-hydroxy-3,3-dimethylbutanamido]propanamido]ethyl)sulfanyl]-4-oxobutanoate], the “% decrease in M-CSF” value in test [2] (1 uM) is reported as at least 20%. The “% decrease in sTNFα” value in test [2] (1 uM) is reported as at least 10%. Moreover, in test [2] (10 uM), the “% decrease in Thrombomodulin” value is reported as at least 10%. The inhibition at 1 µM in test [2] (setting [4]) was at least 10%; in test [2] (setting [5]), at least 20%. Further, the inhibition at 10 µM in test [2] (setting [6]), in test [2] (setting [7]) and in test [3] (setting [9]) was at least 10% in each case. Also, the activation at 10 µM in test [2] (setting [8]) was at least 10%.

For `C[C@@H](O)CC(=O)CC(=O)SCCNC(=O)CCNC(=O)[C@H](O)C(C)(C)CO` [Compound 42, (2R)-2,4-dihydroxy-N-[2-[(2-[[(5R)-5-hydroxy-3-oxohexanoyl]sulfanyl]ethyl)carbamoyl]ethyl]-3,3-dimethylbutanamide], the “% decrease in Thrombomodulin” value in test [2] (10 uM) is at least 10%. Moreover, the inhibition at 10 µM in test [2] (setting [7]) was at least 10%. Moreover, the activation at 10 µM in test [2] (setting [8]) is at least 10%. Further, in test [1], the activation at 10 µM is at least 10%. In test [3] (10 uM), the “% decrease in Keratin 8/18” value is reported as at least 1.0%, the “% decrease in MMP-9” value is at least 10% and the “% decrease in tPA” value is on record as at least 10%.

As to `COC(=O)CC(C(C)=O)C(=O)SCCNC(=O)CCNC(=O)[C@H](O)C(C)(C)CO` (stereo partly drawn) [Compound 410], in test [1], the activation at 10 µM was at least 10%.

For the molecule `CC(C)(CO)[C@@H](O)C(=O)NCCC(=O)NCCSC(=O)[C@@H](N)Cc1ccc(O)c(O)c1` [Compound 371, (2R)—N-[2-[(2-[[(2S)-2-amino-3-(3,4-dihydroxyphenyl)propanoyl]sulfanyl]ethyl)carbamoyl]ethyl]-2,4-dihydroxy-3,3-dimethylbutanamide], in test [2] (10 uM), the “% decrease in sTNFα” value is at least 10%. Also, in test [2] (setting [10]), the inhibition at 1 µM is at least 10%. The inhibition at 10 µM in test [2] (setting [11]) and in test [2] (setting [12]) was at least 10% each time.

With `CC(C)(COC(=O)OCC[N+](C)(C)C)[C@@H](O)C(=O)NCCC(=O)NCCSC(=O)CCC(=O)O` [Compound 116, [2-([[(3R)-3-[[2-([2-[(3-carboxypropanoyl)sulfanyl]ethyl]carbamoyl)ethyl]carbamoyl]-3-hydroxy-2,2-dimethylpropoxy]carbonyl]oxy)ethyl]trimethylazanium], the inhibition at 10 µM in test [2] (setting [6]) was at least 10%.

As to `CCCCCCC(=O)SCCNC(=O)CCNC(=O)[C@H](O)C(C)(C)CO` [Compound 372, (2R)—N-(2-[[2-(heptanoylsulfanyl)ethyl]carbamoyl]ethyl)-2,4-dihydroxy-3,3-dimethylbutanamide], the inhibition at 1 µM in test [2] (setting [10]) is at least 10%. Besides, the inhibition at 10 µM in test [2] (setting [11]) was at least 20%; in test [2] (setting [7]) it was at least 10%; in test [3] (setting [9]), at least 10%. The activation at 10 µM in test [2] (setting [8]) was at least 10%.

Take `COC(=O)CCC(=O)SCCNC(=O)CCNC(=O)[C@H](O)C(C)(C)COC(C)=O` [Compound 138]: the “% increase in Tissue Factor” value in test [2] (1 uM) is listed as at least 10%. For the same molecule, the inhibition at 1 µM in test [2] (setting [5]) is at least 10%. Besides, in test [3] (1 uM), the “% increase in MMP-9” value is at least 10%.

Regarding `CC(=O)SCCNC(=O)CCNC(=O)[C@H](O)C(C)(C)COC(=O)[C@@H](N)Cc1ccc(O)c(O)c1` [Compound 498, (3R)-3-[(2-[[2-(acetylsulfanyl)ethyl]carbamoyl]ethyl)carbamoyl]-3-hydroxy-2,2-dimethylpropyl (2S)-2-amino-3-(3,4-dihydroxyphenyl)propanoate], the “% decrease in sTNFα” value in test [2] (1 uM) is given as at least 10%. Besides, the inhibition at 1 µM is at least 20% in test [2] (setting [4]) and at least 10% in test [2] (setting [5]). Also, in test [2] (setting [6]), the inhibition at 10 µM is at least 10%. In addition, the “% increase in MMP-1” value in test [3] (1 uM) is listed as at least 10%. Moreover, the “% decrease in tPA” value in test [3] (10 uM) is reported as at least 10%.

For the molecule `COC(=O)CCC(=O)SCCNC(=O)CCNC(=O)[C@H](OC(=O)CN)C(C)(C)CO` [Compound 1294, methyl 4-[(2-[3-[(2R)-2-[(2-aminoacetyl)oxy]-4-hydroxy-3,3-dimethylbutanamido]propanamido]ethyl)sulfanyl]-4-oxobutanoate], the inhibition at 1 µM in test [2] (setting [4]) is at least 10%; in test [3] (Homo sapiens, Epithelial cell, 24 h, 1 uM, read-out: % decrease in MMP-1), at least 10%. In addition, the activation at 1 µM in test [2] (Homo sapiens, HUVEC, 24 h, 1 uM, read-out: % increase in sTNFα) was at least 10%. The inhibition at 10 µM in test [2] (setting [7]) and in test [2] (setting [12]) was at least 10% in each case.

Turning to `COC(=O)CC(SCCNC(=O)CCNC(=O)[C@H](O)C(C)(C)COC(C)=O)C(=O)OC` (stereo partly drawn) [Compound 149, 1,4-dimethyl 2-[(2-[3-[(2R)-4-(acetyloxy)-2-hydroxy-3,3-dimethylbutanamido]propanamido]ethyl)sulfanyl]butanedioate], the “% increase in Tissue Factor” value in test [2] (1 uM) is on record as at least 10%. Further, in test [2] (10 uM), the “% increase in IL-8” value is at least 10%. Also, the inhibition at 10 µM in test [2] (setting [6]) was at least 10%; in test [2] (setting [7]), at least 20%; in test [2] (setting [12]) it was at least 10%. The “% decrease in tPA” value in test [3] (10 uM) is listed as at least 10%.
